Results from US20060121499A1, “Methods of identifying glucocorticoids without the detrimental side effects of bone loss” (priority 2004, published 2006).
Starred links: 1 amine or outer side, 2 acyl side, 3 side chain; linkers in the order of their positions; H or OH if unused. Positions of bridges follow the written chain, without caps; N, C: chain ends. Non-standard residues stand in square brackets, D forms with d. Residues, ends and D or L forms follow the SMILES beside them. Chains are numbered I, II in the order given. No end group written: not given here. Actinocin(9to1) = Cc1c2oc3c(C)ccc(C(=O)[*:1])c3nc-2c(C(=O)[*:2])c(N)c1=O; NMeV = CN[C@H](C(=O)O)C(C)C; Sar = CNCC(=O)O

What was measured:
[1] = tested on: MLO-Y4 osteocytic cells; experiment: Quantification of apoptotic cells (nuclear morphology, nGFP) in MLO-Y4 osteocytic cells; format: cell-based, murine; conditions: for effect on dexamethasone (glucocorticoid)-induced apoptosis: inhibitor added 30 minute before dexamethasone 10^−6 M, 6 hour treatment
Method: The murine long bone-derived osteocytic cell line MLO-Y4 was kindly provided by Dr. Lynda Bonewald (University of Missouri-Kansas City, Kansas City, Mo.). Cells were cultured in phenol red-free AMEM supplemented with 2.5% FBS, 2.5% bovine calf serum, 100 U/ml penicillin and 100 μg/ml streptomycin. Cells were plated at 1-2×10^4 cells/cm^2 on collagen type I (Sigma Chemical Co., St. Louis, Mo.) coated plates, as described previously (Kato,Y. et al., J. Bone Min.Res., 12:2014-2023 (1997)).
MLO-Y4 cells stably expressing nuclear green fluorescent protein (nGFP) were obtained using the retroviral vector containing the nGFP, provided by Dr. Charles O'Brien (University of Arkansas for Medical Sciences, Little Rock, Ark.). The SV40 large T antigen nuclear localization sequence (Kalderon,D., et al., Cell, 39:499-509 (1984)) was attached to the carboxy-terminus of the cDNA construct encoding nGFP and subcloned into the pLXSN retroviral vector (Clontech, Palo Alto, Calif.). The plasmid harboring the retroviral construct was transiently transfected into the packaging cell line Phoenix Eco (Grignani, F. et al., Cancer Res. 58:14-19 (1998)) using SuperFect (Qiagen, Santa Clarita, Calif.). Supernatants containing retroviral particles were collected 24-48 h after transfection, and used immediately to infect cell cultures. Subconfluent MLO-Y4 osteocytic cells were exposed to viral supernatants in the presence of 8 μg/ml polybrene for 8 h and then incubated in fresh culture medium for 16 hours. Subsequently, cells were exposed to the supernatants containing the viral particles once more before being trypsinized and plated at low density. Transduced cells were selected by culturing them in the presence of 400 μg/ml of geneticin (G418, Sigma Chemical Co., St. Louis, Mo.) for three weeks (Plotkin,L. I., et al., J. Clin. Invest. 104:1363-1374 (1999)).
Apoptosis was induced in semiconfluent cultures by treatment for the indicated times with the glucocorticoid, dexamethasone (10^−6 M, Sigma Chemical Co., St. Louis, Mo.) or with etoposide (50 μM, Sigma Chemical Co., St. Louis, Mo.). Inhibitors were added 30 minute before the addition of the pro-apoptotic agent at the following concentrations: the RNA synthesis inhibitor actinomycin D (2×10^−6M, Sigma Chemical Co., St. Louis, Mo.), the protein synthesis inhibitor cycloheximide (10^−6 M, Sigma Chemical Co., St. Louis, Mo.), the MEK inhibitor PD98059 (50 μM, New England Biolabs, Beverly, Mass.), the Src inhibitor PP1 (5 μM, BioSource International, Camarillo, Calif.), the p38 inhibitor SB203580 (10^−4 M, Sigma Chemical Co., St. Louis, Mo.), the P13K inhibitor wortmannin (30 nM, Sigma Chemical Co., St. Louis, Mo.), the JNK inhibitor SP600125 (3 μM, EMD Biosciences, Inc, San Diego, Calif.) or the caspase-3 inhibitor Asp-Glu-Val-Asp-aldehide (DEVD-CHO) (50 nM, Biomol Research Lab., Inc., Plymouth Meeting, Pa.).
Following the treatment with the pro-apoptotic agents, cells were fixed for 8 minutes with neutral buffer formalin and stored at 4° C. until analyzed.
Cells were transiently transfected using Lipofectamine Plus (Gibco BRL, Gaithersburg, Md.) as previously described (Plotkin,L. I. et. al., J. Biol.Chem. 277:8648-8657 (2002) and Kousteni, S. et al., Cell, 104:719-730 (2001)). Briefly, cells were cultured in the absence of serum or antibiotics for 3 hours in the presence of 20 μl/ml Plus reagent and 10 μl/ml Lipofectamine together with […] of each of the following DNA constructs: pCDNA3 vector (obtained from Clontech, Palo Alto, Calif.), wild type FAK (provided by Dr. Sandro Aruffo, Bristol-Myers Squibb Pharmaceutical Research Institute, Princeton, N.J. (Chan,P. Y. et al., Methods Mol Biol. 2000.;99.(1.):109.-25. 269:20567-20574 (1994)), or wild type Pyk2, kinase deficient Pyk2 mutant or autophosphorylation deficient Pyk2 mutant (provided by Dr. Wen-Cheng Xiong, University of Alabama at Birmingham, Birmingham, Ala. (Xiong,W. and Parsons,J. T., J Cell Biol 139:529-53(1997)).

[2] = tested on: MLO-Y4 osteocytic cells; experiment: Quantification of cell detachment (number of cytoplasmic processes) in MLO-Y4 cells; format: cell-based, murine
Method: Apoptosis was induced in semiconfluent cultures by treatment for the indicated times with the glucocorticoid, dexamethasone (10^−6 M, Sigma Chemical Co., St. Louis, Mo.) or with etoposide (50 μM, Sigma Chemical Co., St. Louis, Mo.). […]
The effect of dexamethasone or etoposide on cell detachment was quantified by enumerating the number of cytoplasmic processes of MLO-Y4 cells expressing GFP. […]
Apoptosis and cell attachment were determined in the same cultures by examining nuclear morphology (FIG. 2A) and quantifying the number of cytoplasmic processes (FIG. 2B), respectively. Apoptosis was determined by examining nuclear fragmentation and chromatin condensation and cell detachment by quantifying the number of cytoplasmic processes in the same cells. […]

Row | Molecule | effect on dexamethasone (glucocorticoid)-induced apoptosis [1] | further results
1 | CC(=O)OCOC(=O)CN(CC(=O)OCOC(C)=O)c1ccccc1OCCOc1ccccc1N(CC(=O)OCOC(C)=O)CC(=O)OCOC(C)=O [BAPTA-AM] | abolished | 
2 | Cc1c2oc3c(C)ccc(C(=O)N[C@@H]4C(=O)N[C@H](C(C)C)C(=O)N5CCC[C@H]5C(=O)N(C)CC(=O)N(C)[C@@H](C(C)C)C(=O)O[C@@H]4C)c3nc-2c(C(=O)N[C@@H]2C(=O)N[C@H](C(C)C)C(=O)N3CCC[C@H]3C(=O)N(C)CC(=O)N(C)[C@@H](C(C)C)C(=O)O[C@@H]2C)c(N)c1=O [actinomycin D] (I: T[dV]P[Sar][NMeV] / II: T[dV]P[Sar][NMeV]; ester I:1-I:C, II:1-II:C; linker I:N-II:N via Actinocin(9to1)) | dexamethasone was able to induce apoptosis | 
3 | C[C@@H]1C[C@@H]([C@H](O)CC2CC(=O)NC(=O)C2)C(=O)[C@@H](C)C1 [cycloheximide] | dexamethasone was able to induce apoptosis | 
4 | COc1cc([C@@H]2c3cc4c(cc3[C@@H](O[C@@H]3O[C@@H]5CO[C@@H](C)O[C@H]5[C@H](O)[C@H]3O)[C@H]3COC(=O)[C@H]23)OCO4)cc(OC)c1O [etoposide] |  | number of cells exhibiting three or less cytoplasmic processes (cell attachment) ([2]; dexamethasone: as early as after 1 h, etoposide: duration of the experiment): did not exhibit changes in cell attachment; apoptosis (nuclear fragmentation and chromatin condensation) ([1]; 6 hours of treatment, dexamethasone 10^−6 M, etoposide 50 μM): induced apoptosis; apoptosis in cells overexpressing FAK ([1]; transient transfection wild type FAK, 6 hours): not protected; apoptosis in cells overexpressing Pyk2 ([1]; transient transfection wild type Pyk2, 6 hours): remained responsive; apoptosis in cells transfected with wild type Pyk2 vector ([1]; transient transfection, co-transfected nGFP, 6 hours): exhibited apoptosis
5 | [Gd] [gadolinium] | abolished | 
6 | C/C=C(/C)C(=O)O[C@H]1C(C)=C2[C@H]([C@@H]1OC(=O)CCCCCCC)[C@@](C)(OC(C)=O)C[C@H](OC(=O)CCC)[C@@]1(O)[C@H]2OC(=O)[C@@]1(C)O [thapsigargin] | had no effect | 
7 | Asp-Glu-Val-Asp-aldehide (DEVD-aldehyde) | abolished | effect on dexamethasone-induced changes in cell attachment ([2]; inhibitor added 30 minute before dexamethasone 10^−6 M): did not reverse
